The results in this text go back to patent US6638936B1, “Benzofurylpiperazine serotonin agonists” (Eli Lilly and Company, priority 1999, dated 2003).

A word on the Ki: it is a dissociation constant, usually derived from enzyme kinetics or from competition with a known ligand. Broadly, the EC50 is the concentration needed to bring the measured effect to its halfway point.

Like-named read-outs stand apart in the source and are kept apart here.

The target of one experiment is 5-HT1d receptor (Homo sapiens, UniProt P28221). In words: Serotonergic receptor binding selectivity, 5-HT1d. Particulars: 5-HT RECEPTOR 1d.
Sequence of 5-HT1d receptor (P28221 whole entry): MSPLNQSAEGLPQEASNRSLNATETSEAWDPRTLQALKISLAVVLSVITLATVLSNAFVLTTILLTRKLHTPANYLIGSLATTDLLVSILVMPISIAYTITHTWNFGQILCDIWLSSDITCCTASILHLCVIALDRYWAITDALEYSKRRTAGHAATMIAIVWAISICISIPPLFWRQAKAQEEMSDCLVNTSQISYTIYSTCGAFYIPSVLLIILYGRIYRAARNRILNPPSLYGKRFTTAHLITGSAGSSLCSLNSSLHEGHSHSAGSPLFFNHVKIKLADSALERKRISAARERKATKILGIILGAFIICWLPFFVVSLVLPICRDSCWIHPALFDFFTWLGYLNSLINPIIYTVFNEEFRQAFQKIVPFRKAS
In another experiment the target is 5-HT1e receptor (Homo sapiens, UniProt P28566). In words: Serotonergic receptor binding selectivity, 5-HT1e. Particulars: 5-HT RECEPTOR 1e.
Sequence of 5-HT1e receptor (P28566 whole entry): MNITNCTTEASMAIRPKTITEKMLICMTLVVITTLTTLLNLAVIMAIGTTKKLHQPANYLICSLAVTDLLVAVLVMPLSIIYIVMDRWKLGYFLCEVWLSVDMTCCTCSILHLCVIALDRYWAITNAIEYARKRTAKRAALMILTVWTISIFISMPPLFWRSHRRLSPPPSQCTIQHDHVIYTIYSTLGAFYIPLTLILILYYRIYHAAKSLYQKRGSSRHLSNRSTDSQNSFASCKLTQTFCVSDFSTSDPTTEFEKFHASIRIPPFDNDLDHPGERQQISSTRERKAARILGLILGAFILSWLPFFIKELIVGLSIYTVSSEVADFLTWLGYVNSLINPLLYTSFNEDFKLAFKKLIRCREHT
The next experiment concerns the target 5-HT2a receptor (Homo sapiens, UniProt P28223). In words: Serotonergic receptor binding selectivity, 5-HT2a.
The target of another experiment is T1, 5-HT1a receptor (Homo sapiens, UniProt P08908).
T1 sequence (P08908 1-422): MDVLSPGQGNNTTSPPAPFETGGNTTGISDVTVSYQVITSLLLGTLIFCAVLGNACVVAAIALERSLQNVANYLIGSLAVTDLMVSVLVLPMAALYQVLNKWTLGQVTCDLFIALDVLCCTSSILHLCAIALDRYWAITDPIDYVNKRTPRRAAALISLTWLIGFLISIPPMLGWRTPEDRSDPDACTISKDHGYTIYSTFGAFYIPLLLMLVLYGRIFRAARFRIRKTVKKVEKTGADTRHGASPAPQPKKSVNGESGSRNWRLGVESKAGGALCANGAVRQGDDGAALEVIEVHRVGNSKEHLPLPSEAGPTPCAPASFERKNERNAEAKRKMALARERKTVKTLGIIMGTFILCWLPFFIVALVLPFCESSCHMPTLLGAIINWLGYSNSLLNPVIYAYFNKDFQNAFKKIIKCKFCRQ
In words: Serotonergic receptor binding selectivity, 5-HT1a.

The target in another experiment is 5-HT2b receptor (Homo sapiens, UniProt P41595). In words: Serotonergic receptor binding selectivity, 5-HT2b.
Sequence of 5-HT2b receptor (P41595 whole entry): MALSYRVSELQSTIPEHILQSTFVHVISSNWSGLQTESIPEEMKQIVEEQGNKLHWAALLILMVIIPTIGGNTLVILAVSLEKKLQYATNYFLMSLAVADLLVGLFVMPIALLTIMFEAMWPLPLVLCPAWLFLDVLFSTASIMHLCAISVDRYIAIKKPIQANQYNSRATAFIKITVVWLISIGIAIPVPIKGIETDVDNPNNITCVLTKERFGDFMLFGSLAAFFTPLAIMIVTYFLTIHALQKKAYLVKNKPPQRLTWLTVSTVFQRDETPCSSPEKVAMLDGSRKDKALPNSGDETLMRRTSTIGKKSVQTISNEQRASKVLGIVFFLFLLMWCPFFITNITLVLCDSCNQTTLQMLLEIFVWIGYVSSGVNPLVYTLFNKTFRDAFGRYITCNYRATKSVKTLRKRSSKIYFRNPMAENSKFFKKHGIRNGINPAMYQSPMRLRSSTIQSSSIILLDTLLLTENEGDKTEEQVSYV
A further experiment deals with T2, 5-HT1f receptor (Homo sapiens, UniProt P30939).
T2 sequence (P30939 1-366): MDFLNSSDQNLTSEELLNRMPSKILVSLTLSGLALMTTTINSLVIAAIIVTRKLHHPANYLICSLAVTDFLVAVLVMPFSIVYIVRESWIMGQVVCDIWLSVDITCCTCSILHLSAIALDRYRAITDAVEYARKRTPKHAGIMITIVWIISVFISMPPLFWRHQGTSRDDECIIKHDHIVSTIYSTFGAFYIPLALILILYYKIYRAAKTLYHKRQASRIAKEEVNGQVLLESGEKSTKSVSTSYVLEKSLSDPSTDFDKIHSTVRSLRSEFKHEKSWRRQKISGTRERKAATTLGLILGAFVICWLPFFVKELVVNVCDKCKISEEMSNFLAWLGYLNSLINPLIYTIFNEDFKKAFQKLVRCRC
In words: Serotonergic receptor binding selectivity, 5-HT1f. As to conditions: 5-HT RECEPTOR 1f.

A further experiment concerns the target 5-HT4 receptor (Homo sapiens, UniProt Q13639). In words: Serotonergic receptor binding selectivity, 5-HT4. As to conditions: 5-HT RECEPTOR 4.
The target in a further experiment is 5-HT1b receptor (Homo sapiens, UniProt P28222). In words: Serotonergic receptor binding selectivity, 5-HT1b. Particulars: 5-HT RECEPTOR 1b.
Sequence of 5-HT1b receptor (P28222 whole entry): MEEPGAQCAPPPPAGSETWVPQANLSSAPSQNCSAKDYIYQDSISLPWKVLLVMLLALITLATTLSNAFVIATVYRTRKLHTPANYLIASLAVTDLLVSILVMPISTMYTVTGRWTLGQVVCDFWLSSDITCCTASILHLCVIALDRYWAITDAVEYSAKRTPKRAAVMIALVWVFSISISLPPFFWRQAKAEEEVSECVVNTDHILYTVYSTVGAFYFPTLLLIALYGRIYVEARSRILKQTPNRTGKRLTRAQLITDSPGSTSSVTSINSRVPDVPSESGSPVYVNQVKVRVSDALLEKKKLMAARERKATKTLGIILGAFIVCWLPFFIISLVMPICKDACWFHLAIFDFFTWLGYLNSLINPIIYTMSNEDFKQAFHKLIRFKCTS
Experiment [1] addresses T3, human 5-HT2C receptor (Homo sapiens, UniProt P28335).
T3 construct: expressed in transfected cells
T3 sequence (P28335 33-458): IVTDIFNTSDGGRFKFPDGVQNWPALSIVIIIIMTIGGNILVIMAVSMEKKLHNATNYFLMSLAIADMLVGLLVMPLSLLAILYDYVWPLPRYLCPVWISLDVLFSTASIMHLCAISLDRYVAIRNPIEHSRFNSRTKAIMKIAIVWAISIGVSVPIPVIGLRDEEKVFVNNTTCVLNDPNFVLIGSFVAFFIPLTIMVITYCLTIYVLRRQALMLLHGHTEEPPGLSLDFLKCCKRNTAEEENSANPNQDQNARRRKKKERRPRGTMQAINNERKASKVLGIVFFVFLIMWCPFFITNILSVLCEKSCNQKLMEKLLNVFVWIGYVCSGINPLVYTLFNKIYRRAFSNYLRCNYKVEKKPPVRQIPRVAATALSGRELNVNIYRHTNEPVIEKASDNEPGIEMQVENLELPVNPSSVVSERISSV
In words: [125I]-DOI binding for determination of 5-HT2c receptor affinity. Particulars: for Ki: 5-HT RECEPTOR 2c, [125I]-DOI, membranes of AV12 cells with human 5-HT2c, Ki from IC50 by Cheng-Prusoff; for affinity for the 5-HT2c receptor (in words): [125I]-DOI binding. As to the method: The ability of the compounds of Formula I to bind to the 5-HT2c receptor subtype was measured essentially as described by Wainscott (Wainscott, et al., Journal of Pharmacology and Experimental Therapeutics, 276, 720-727 (1996)).
AV12 cells stably transfected with the human 5-HT2c receptors were grown in suspension and harvested by centrifugation, resuspended in 50 mM tris-HCl, pH 7.4, and frozen at −70° C. On the day of assay, an aliquot of cells was thawed, resuspended in 40 mL of 50 mM tris-HCl, pH 7.4, and centrifuged at 39,800×g for 10 minutes at 4° C. The resulting pellet was resuspended, incubated at 37° C. for 10 minutes to remove endogenous serotonin, then centrifuged twice more.
Briefly, prepared cell membranes were added to dilutions of compounds in a final solution containing 50 mM tris-HCl, pH 7.4, 9.75 mM MgCl2, 0.5 mM EDTA, 10 μM pargyline, 0.1% sodium ascorbate, and 0.1 nM [^125I]-DOI, with 10 μM mianserin for defining non-specific binding. All incubations (800 μL) were performed at 37° C. for 30 minutes before harvesting onto GF/C filters prewet with 0.5% polyethyleneimine, with four 1 mL washes of ice-cold 50 mM tris-HCl, pH 7.4, and counting in a gamma counter. Nonlinear regression analysis was performed on the concentration response curves using a four parameter logistic equation described by DeLean (DeLean, et al., Molecular Pharmacology, 21, 5-16 (1982)). IC50 values were converted to Ki values using the Cheng-Prusoff equation (Cheng, et al., Biochem. Pharmacol., 22, 3099-3108 (1973)).

In experiment [2] the target is T3, human 5-HT2C receptor. In words: [35S]-GTPγS binding (immunoadsorption scintillation proximity assay). The experiment is classed as biochemical. Particulars: for functional activity at the 5-HT2c receptor (in words): [35S]-GTPγS assay. The text has this:
The 5-HT2C receptor is functionally coupled to specific G-proteins. Agonist activation of 5-HT2C G-protein-coupled receptors results in the release of GDP from the […] (G alpha q or G alpha i) of the G-protein and the subsequent binding of GTP. The binding of the stable analog [^35S]-GTPγS is an indicator of this receptor's activation.
The immunoadsorption scintillation proximity assay (ISPA) in microtiter plates of [^35S]-GTPγS binding to G alpha q or G alpha i was modified from published conditions (DeLapp et al, JPET 289 (1999) 946-955). Test compounds were dissolved in DMSO and diluted in assay buffer consisting of 50 mM Tris-HCl (pH 7.4), 10 mM MgCl2, 100 mM NaCl, and 0.2 mM EGTA. Incubations were performed over 12 test concentrations; volume was 200 μl. The incubation also contained […] and 0.25 nM [^35S]-GTPγS. Membrane homogenates from AV12 cells stably transfected with the human 5-HT2C receptor were added and the microtiter plates were incubated for 30 minutes at room temperature. The incubation was terminated by the addition of Nonidet P-40 (final concentration of 0.27%), followed by addition of rabbit polyclonal anti-G alpha q/11 antibody (0.2 μg per well), and anti-rabbit scintillation proximity assay beads (Amersham; 1.25 mg per well; final volume was 290 μl). The mixture was incubated for 3 hours at room temperature to complete the immunoadsorption of [^35S]-GTPγS bound to G alpha q/11. Microtiter plates were centrifuged briefly to pellet beads. [^35S]-GTPγS binding was quantitated by microtiter plate scintillation spectrometry (Wallac). Data analysis was performed by nonlinear regression analysis with GraphPad Prism software running on a personal computer, using 5-HT control concentration-response curves to define maximal stimulation of [^35S]-GTPγS binding.
In general terms: GTPγS resists hydrolysis and so accumulates on activated G proteins.

In the next experiment the target is 5-HT6 receptor (Homo sapiens, UniProt P50406). In words: Serotonergic receptor binding selectivity, 5-HT6.
Sequence of 5-HT6 receptor (P50406 whole entry): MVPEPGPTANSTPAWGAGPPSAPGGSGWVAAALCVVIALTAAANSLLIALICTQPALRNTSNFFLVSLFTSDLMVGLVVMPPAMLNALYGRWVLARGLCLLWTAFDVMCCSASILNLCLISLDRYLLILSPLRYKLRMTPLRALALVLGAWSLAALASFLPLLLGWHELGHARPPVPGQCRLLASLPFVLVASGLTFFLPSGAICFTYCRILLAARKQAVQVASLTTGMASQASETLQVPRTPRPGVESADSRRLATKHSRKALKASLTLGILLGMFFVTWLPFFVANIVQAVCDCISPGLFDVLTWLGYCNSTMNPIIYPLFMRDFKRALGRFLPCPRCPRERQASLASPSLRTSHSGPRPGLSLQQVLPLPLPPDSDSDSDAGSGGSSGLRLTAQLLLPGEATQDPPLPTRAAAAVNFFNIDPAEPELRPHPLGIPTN

Sequence of 5-HT2a receptor (P28223 whole entry): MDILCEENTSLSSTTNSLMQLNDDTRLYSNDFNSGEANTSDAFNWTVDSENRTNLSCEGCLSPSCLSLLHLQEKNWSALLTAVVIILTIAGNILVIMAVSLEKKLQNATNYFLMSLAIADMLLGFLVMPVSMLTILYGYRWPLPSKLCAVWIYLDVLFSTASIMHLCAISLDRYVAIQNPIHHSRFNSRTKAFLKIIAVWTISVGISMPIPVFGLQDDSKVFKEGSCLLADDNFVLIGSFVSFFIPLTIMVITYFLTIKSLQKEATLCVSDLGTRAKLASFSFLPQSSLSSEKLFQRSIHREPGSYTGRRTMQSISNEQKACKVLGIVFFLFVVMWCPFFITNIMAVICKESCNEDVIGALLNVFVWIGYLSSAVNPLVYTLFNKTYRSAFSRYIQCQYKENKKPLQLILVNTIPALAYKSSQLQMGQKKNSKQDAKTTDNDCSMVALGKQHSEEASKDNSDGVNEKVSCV
Sequence of 5-HT4 receptor (Q13639 whole entry): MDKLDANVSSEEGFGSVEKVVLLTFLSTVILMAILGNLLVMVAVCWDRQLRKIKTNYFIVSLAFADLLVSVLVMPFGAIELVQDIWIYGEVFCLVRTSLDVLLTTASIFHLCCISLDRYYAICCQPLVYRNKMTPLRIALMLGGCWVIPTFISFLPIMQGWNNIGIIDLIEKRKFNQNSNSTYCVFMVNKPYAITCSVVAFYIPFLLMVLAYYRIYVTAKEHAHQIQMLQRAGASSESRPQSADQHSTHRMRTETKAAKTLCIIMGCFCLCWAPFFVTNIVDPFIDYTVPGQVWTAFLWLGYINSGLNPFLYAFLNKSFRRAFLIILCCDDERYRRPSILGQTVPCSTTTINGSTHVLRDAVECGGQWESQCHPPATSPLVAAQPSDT

Regarding `C[C@H]1CN(c2ccc(C(F)(F)F)c3ccoc23)CCN1.O=C(O)/C=C/C(=O)O` [Example 1, 1-(4-trifluoromethylbenzofur-7-yl)-3(S)-methylpiperazine fumarate], the Ki on 5-HT1d receptor is 147 nM; at 5-HT1e receptor it was 633 nM; at 5-HT2a receptor, 37.6 nM; on 5-HT1a receptor it was 134 nM; on 5-HT2b receptor it was 177 nM; on 5-HT1f receptor it was 163 nM. In addition, the inhibition constant (Ki) at 5-HT4 receptor was determined as 977 nM; on 5-HT1b receptor, 260 nM; on human 5-HT2C receptor [1], 2.41 nM; at 5-HT6 receptor, 225 nM. Further, the “affinity for the 5-HT2c receptor (in words)” value on human 5-HT2C receptor [1] was “found to have affinity”. The molecule also returned an EC50 at human 5-HT2C receptor [2] of 8.5 nM. For the same molecule, the “functional activity at the 5-HT2c receptor (in words)” value on human 5-HT2C receptor [2] is reported as “agonist”.
Take `CC[C@H]1CN(c2ccc(C(F)(F)F)c3ccoc23)CCN1.O=C(O)/C=C/C(=O)O` [Example 2, 1-(4-trifluoromethylbenzofur-7-yl)-3(S)-ethylpiperazine fumarate]: the Ki at 5-HT1d receptor amounted to 726 nM; at 5-HT1e receptor, 1140 nM; at 5-HT2a receptor (5-HT RECEPTOR 2a, read-out: Ki, 5-HT receptor 2a), 27.8 nM; on 5-HT1a receptor (5-HT RECEPTOR 1a, read-out: Ki, 5-HT receptor 1a) it was 261 nM; at 5-HT2b receptor (5-HT RECEPTOR 2b, read-out: Ki, 5-HT receptor 2b), 177 nM; on 5-HT1f receptor, 1000 nM. The Ki is 2940 nM at 5-HT1b receptor; 0.77 nM at human 5-HT2C receptor [1]; 607 nM on 5-HT6 receptor (5-HT RECEPTOR 6, read-out: Ki, 5-HT receptor 6). The “affinity for the 5-HT2c receptor (in words)” value on human 5-HT2C receptor [1] is “found to have affinity”. Further, on human 5-HT2C receptor [2], the “functional activity at the 5-HT2c receptor (in words)” value was “agonist”. Also, the EC50 at human 5-HT2C receptor [2] (agonist of 5-HT2c receptor, membranes of AV12 cells with human 5-HT2C, 5-HT defines maximal stimulation, read-out: EC50, [35S]-GTPγS assay) amounted to 7.8 nM.
